# Experimental data: the supplement of paper PMC10307832
# Assays:
# Assay in all cases: relative viability (nuclei count vs DMSO), 5 days (fraction); higher = more cells survive
# [1] = compound: COc1cc(Nc2ncc(F)c(Nc3ccc4c(n3)NC(=O)C(C)(C)O4)n2)cc(OC)c1OC [R406] + Cc1cc(Nc2cc(N3CCN(C)CC3)nc(Sc3ccc(NC(=O)C4CC4)cc3)n2)n[nH]1 [Tozasertib] (partner 0.1 µM)
# How it was run: (§1)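 Lung cancer cell lines, seeded in 1536-well plates, were treated the following day by pin tool with a single drug or with five library-drug doses (not always all listed) in √10 steps on top of a fixed anchor-drug dose. Cells were fixed and nuclei stained in one step after 5 days, and nuclei were counted. Relative viability is the nuclei count for treated wells divided by that for vehicle wells, reported as medians of duplicate plates.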
# [2] = compound: COc1cc(Nc2ncc(F)c(Nc3ccc4c(n3)NC(=O)C(C)(C)O4)n2)cc(OC)c1OC [R406] + CS(=O)(=O)N1CCN(Cc2cc3nc(-c4cccc5[nH]ncc45)nc(N4CCOCC4)c3s2)CC1 [Pictilisib] (partner 1 µM)
# How it was run: as §1
# [3] = compound: COc1cc(Nc2ncc(F)c(Nc3ccc4c(n3)NC(=O)C(C)(C)O4)n2)cc(OC)c1OC [R406] + C[C@]1(O)C[C@@H](c2nc(-c3ccc4ccc(-c5ccccc5)nc4c3)c3c(N)nccn32)C1 [Linsitinib] (partner 1 µM)
# How it was run: as §1
# [4] = compound: COc1cc(Nc2ncc(F)c(Nc3ccc4c(n3)NC(=O)C(C)(C)O4)n2)cc(OC)c1OC [R406] + COc1cccc2cc(-c3nc([C@H]4CC[C@H](C(=O)O)CC4)n4ncnc(N)c34)[nH]c12 [OSI-027] (partner 0.5 µM)
# How it was run: as §1
Cell Line,relative viability ([1]; first compound 0.08 µM),relative viability ([1]; first compound 0.253 µM),relative viability ([1]; first compound 0.8 µM),relative viability ([1]; first compound 2.53 µM),relative viability ([1]; first compound 8 µM),relative viability ([2]; first compound 0.08 µM),relative viability ([2]; first compound 0.253 µM),relative viability ([2]; first compound 0.8 µM),relative viability ([2]; first compound 8 µM),relative viability ([3]; first compound 0.08 µM),relative viability ([3]; first compound 0.253 µM),relative viability ([3]; first compound 0.8 µM),relative viability ([3]; first compound 8 µM),relative viability ([4]; first compound 0.08 µM),relative viability ([4]; first compound 0.253 µM),relative viability ([4]; first compound 0.8 µM),relative viability ([4]; first compound 2.53 µM),relative viability ([4]; first compound 8 µM),relative viability ([2]; first compound 2.53 µM),relative viability ([3]; first compound 2.53 µM)
LU99A,0.274,0.312,0.246,0.313,0.265,0.368,0.296,0.357,0.211,0.518,0.499,0.572,0.197,0.322,0.283,0.308,0.253,0.276,–,–
LXF-289,0.192,0.178,0.197,0.183,0.067,0.724,0.799,0.845,0.268,0.922,0.967,0.994,0.295,0.805,0.84,0.931,0.377,0.487,0.634,0.989
NCI-H23,0.35,0.394,0.511,–,0.148,0.521,0.543,0.695,0.328,0.494,0.7,0.7,0.459,0.588,0.647,0.602,–,0.269,0.165,0.56
NCI-H322M,0.496,0.465,0.489,0.343,0.283,0.519,0.484,0.57,0.333,0.879,0.814,0.983,0.472,0.524,0.514,0.602,0.348,0.347,0.235,0.523
NCI-H358,0.107,0.116,0.081,0.109,0.0818,0.336,0.323,0.319,0.228,0.889,0.752,0.723,0.336,0.752,0.678,0.893,0.208,0.118,0.272,0.418
NCI-H441,0.676,0.72,0.635,0.524,0.265,0.387,0.375,0.544,0.258,0.377,0.609,0.662,0.47,0.528,0.683,0.574,0.255,0.408,0.206,0.411
NCI-H460,0.493,0.486,0.481,0.344,0.264,0.33,0.426,0.38,0.259,0.824,0.8,1.17,0.0646,0.621,0.587,1.13,0.288,0.111,0.224,–
NCI-H520,0.499,0.469,0.45,0.347,0.219,0.286,0.408,0.377,0.195,0.897,1.09,1.07,0.295,0.243,0.302,0.336,0.25,0.188,0.191,0.486
NCI-H596,0.868,1.01,1.05,0.513,0.267,0.368,0.362,0.392,0.252,1.09,1.2,1.2,0.232,0.793,0.682,0.903,0.329,0.269,0.316,0.878
NCI-H647,0.261,0.327,0.26,0.21,0.173,0.437,0.402,0.418,0.147,0.813,1.21,1.15,0.159,0.657,0.504,0.878,0.298,0.15,0.276,0.763
NCI-H650,0.701,0.885,0.699,0.614,0.599,0.89,1.04,0.993,0.604,0.909,0.876,1.15,0.528,0.453,0.553,0.465,0.45,0.344,0.613,0.473
NCI-H661,0.337,0.322,0.32,0.348,0.324,0.367,0.456,0.459,0.271,0.436,0.72,0.515,0.335,0.674,0.819,0.702,0.501,0.38,0.345,0.39
NCI-H727,0.586,0.566,0.694,0.594,0.433,0.386,0.508,0.354,0.252,0.252,0.28,0.319,0.237,0.712,0.829,0.641,0.304,0.537,0.175,0.35
NCI-H838,0.247,0.327,0.248,0.254,0.217,0.412,0.689,0.407,0.178,1.03,1.15,1.12,0.522,0.407,0.472,0.368,0.326,0.167,0.199,0.645
NCI-H1355,0.572,0.575,0.558,0.572,0.258,0.521,0.571,0.557,0.313,0.83,0.83,0.94,0.596,0.474,0.404,0.456,0.163,0.189,0.211,0.588
NCI-H1395,0.714,0.77,0.734,0.647,0.519,0.643,0.668,0.678,0.378,1.02,1.26,1.18,0.727,0.592,0.73,0.754,0.429,0.424,0.581,0.866
